Here are results for 33 compounds from ChEMBL document CHEMBL1157046, “QSAR modeling of taxane analogues against colon cancer” (Eur J Med Chem, 2010).

The test system of the first assay is HT-29. The experiment in a line: Cytotoxicity against human HT-29 cells.
Conditions: not given
The format is functional, cell-based.
For `CC(=O)O[C@@]12CO[C@@H]1C[C@H](O)[C@@]1(C)C(=O)[C@H](O)C3=C(C)[C@@H](OC(=O)[C@H](O)[C@@H](NC(=O)C(C)(C)C)c4ccco4)[C@@H]4OC(=O)O[C@]4([C@@H](OC(=O)c4ccccc4)[C@H]21)C3(C)C`, the midpoint of inhibition, the IC50, lay at 603 pM.

On to `CC(=O)O[C@H]1C(=O)[C@@]2(C)[C@H]([C@H](OC(=O)c3ccccc3)[C@]34OC(=O)O[C@H]3[C@H](OC(=O)[C@H](O)[C@@H](NC(=O)C(C)(C)C)c3ccco3)C(C)=C1C4(C)C)[C@]1(OC(C)=O)CO[C@@H]1C[C@@H]2O`, for which the IC50 was 603 pM. This counts as sub-nanomolar.

Regarding `CC(=O)O[C@@]12CO[C@@H]1C[C@H](O)[C@@]1(C)C(=O)[C@H](O)C3=C(C)[C@@H](OC(=O)[C@H](O)[C@H](C=C(C)C)NC(=O)C(C)(C)C)[C@@H]4OC(=O)O[C@]4([C@@H](OC(=O)c4ccccc4)[C@H]21)C3(C)C`, the IC50 was 501 pM.

As for `CC(=O)O[C@H]1C(=O)[C@@]2(C)[C@H]([C@H](OC(=O)c3ccccc3)[C@]34OC(=O)O[C@H]3[C@H](OC(=O)[C@H](O)[C@H](C=C(C)C)NC(=O)C(C)(C)C)C(C)=C1C4(C)C)[C@]1(OC(C)=O)CO[C@@H]1C[C@@H]2O`, the IC50 is 2400 pM. Compared with the last compound, the IC50 is about 4.8-fold higher.

Turning to `CCC(=O)O[C@H]1C(=O)[C@@]2(C)[C@H]([C@H](OC(=O)c3ccccc3)[C@]34OC(=O)O[C@H]3[C@H](OC(=O)[C@H](O)[C@H](C=C(C)C)NC(=O)C(C)(C)C)C(C)=C1C4(C)C)[C@]1(OC(C)=O)CO[C@@H]1C[C@@H]2O`, the IC50 is 603 pM.

In turn, `CC(=O)O[C@@]12CO[C@@H]1C[C@H](O)[C@@]1(C)C(=O)[C@H](OC(=O)C3CC3)C3=C(C)[C@@H](OC(=O)[C@H](O)[C@H](C=C(C)C)NC(=O)C(C)(C)C)[C@@H]4OC(=O)O[C@]4([C@@H](OC(=O)c4ccccc4)[C@H]21)C3(C)C` gave an IC50 of 1000 pM. Compared with the last compound, the IC50 is about 1.7-fold higher.

The compound `CC(=O)O[C@@]12CO[C@@H]1C[C@H](O)[C@@]1(C)C(=O)[C@H](OC(=O)N(C)C)C3=C(C)[C@@H](OC(=O)[C@H](O)[C@H](C=C(C)C)NC(=O)C(C)(C)C)[C@@H]4OC(=O)O[C@]4([C@@H](OC(=O)c4ccccc4)[C@H]21)C3(C)C` had a half-inhibitory concentration (IC50) of 1200 pM.

With `C/C=C/C(=O)O[C@H]1C(=O)[C@@]2(C)[C@H]([C@H](OC(=O)c3ccccc3)[C@]34OC(=O)O[C@H]3[C@H](OC(=O)[C@H](O)[C@H](C=C(C)C)NC(=O)C(C)(C)C)C(C)=C1C4(C)C)[C@]1(OC(C)=O)CO[C@@H]1C[C@@H]2O`, inhibition was half-maximal at 1510 pM (IC50).

For `COC(=O)O[C@H]1C(=O)[C@@]2(C)[C@H]([C@H](OC(=O)c3ccccc3)[C@]34OC(=O)O[C@H]3[C@H](OC(=O)[C@H](O)[C@H](C=C(C)C)NC(=O)C(C)(C)C)C(C)=C1C4(C)C)[C@]1(OC(C)=O)CO[C@@H]1C[C@@H]2O`, the IC50 was 708 pM. This IC50 is about 2.1-fold lower than that of the compound before.

For the compound `C/C=C/[C@H](NC(=O)C(C)(C)C)[C@@H](O)C(=O)O[C@@H]1C(C)=C2[C@@H](O)C(=O)[C@@]3(C)[C@H]([C@H](OC(=O)c4ccccc4)[C@@]4(OC(=O)O[C@@H]14)C2(C)C)[C@]1(OC(C)=O)CO[C@@H]1C[C@@H]3O`, the IC50 was 1910 pM.

Regarding `CCCCCC(=O)N[C@@H](C=C(C)C)[C@@H](O)C(=O)O[C@@H]1C(C)=C2[C@@H](OC(=O)C3CC3)C(=O)[C@@]3(C)[C@H]([C@H](OC(=O)c4ccccc4)[C@@]4(OC(=O)O[C@@H]14)C2(C)C)[C@]1(OC(C)=O)CO[C@@H]1C[C@@H]3O`, the IC50 was 15800 pM.

On to `CCCCCC(=O)N[C@@H](C=C(C)C)[C@@H](O)C(=O)O[C@@H]1C(C)=C2[C@@H](OC(=O)N(C)C)C(=O)[C@@]3(C)[C@H]([C@H](OC(=O)c4ccccc4)[C@@]4(OC(=O)O[C@@H]14)C2(C)C)[C@]1(OC(C)=O)CO[C@@H]1C[C@@H]3O`, for which the IC50 was 5130 pM.

Compound `C/C=C/C(=O)O[C@H]1C(=O)[C@@]2(C)[C@H]([C@H](OC(=O)c3ccccc3)[C@]34OC(=O)O[C@H]3[C@H](OC(=O)[C@H](O)[C@H](C=C(C)C)NC(=O)CCCCC)C(C)=C1C4(C)C)[C@]1(OC(C)=O)CO[C@@H]1C[C@@H]2O` showed an IC50 of 28200 pM.

In the case of `CC(=O)O[C@@]12CO[C@@H]1C[C@H](O)[C@@]1(C)C(=O)[C@H](O)C3=C(C)[C@@H](OC(=O)[C@H](O)[C@H](CC(C)C)NC(=O)C(C)(C)C)[C@@H]4OC(=O)O[C@]4([C@@H](OC(=O)c4ccccc4)[C@H]21)C3(C)C`, half-maximal inhibition (IC50) was put at 4170 pM.

`CC(=O)O[C@H]1C(=O)[C@@]2(C)[C@H]([C@H](OC(=O)c3ccccc3)[C@]34OC(=O)O[C@H]3[C@H](OC(=O)[C@H](O)[C@H](CC(C)C)NC(=O)C(C)(C)C)C(C)=C1C4(C)C)[C@]1(OC(C)=O)CO[C@@H]1C[C@@H]2O` had an IC50 of 1510 pM.

The compound `CCC[C@H](NC(=O)C(C)(C)C)[C@@H](O)C(=O)O[C@@H]1C(C)=C2[C@@H](O)C(=O)[C@@]3(C)[C@H]([C@H](OC(=O)c4ccccc4)[C@@]4(OC(=O)O[C@@H]14)C2(C)C)[C@]1(OC(C)=O)CO[C@@H]1C[C@@H]3O` showed an IC50 of 3800 pM.

`CCC[C@H](NC(=O)C(C)(C)C)[C@@H](O)C(=O)O[C@@H]1C(C)=C2[C@@H](OC(C)=O)C(=O)[C@@]3(C)[C@H]([C@H](OC(=O)c4ccccc4)[C@@]4(OC(=O)O[C@@H]14)C2(C)C)[C@]1(OC(C)=O)CO[C@@H]1C[C@@H]3O` showed an IC50 of 4790 pM.

Take `CCC(=O)O[C@H]1C(=O)[C@@]2(C)[C@H]([C@H](OC(=O)c3cccc(N=[N+]=[N-])c3)[C@]3(O)C[C@H](OC(=O)[C@H](O)[C@@H](CC(=O)OC(C)(C)C)C(F)(F)F)C(C)=C1C3(C)C)[C@]1(OC(C)=O)CO[C@@H]1C[C@@H]2O`: 398 pM corresponded to half-maximal inhibition (IC50).

The compound `CC(=O)O[C@@]12CO[C@@H]1C[C@H](O)[C@@]1(C)C(=O)[C@H](O)C3=C(C)[C@@H](OC(=O)[C@H](O)[C@@H](NC(=O)OC(C)(C)C)C(F)(F)F)C[C@@](O)([C@@H](OC(=O)c4cccc(N=[N+]=[N-])c4)[C@H]21)C3(C)C` had an IC50 of 708 pM.

Consider `C/C=C/[C@H](NC(=O)C(C)(C)C)[C@@H](O)C(=O)O[C@@H]1C(C)=C2[C@@H](OC(C)=O)C(=O)[C@@]3(C)[C@H]([C@H](OC(=O)c4ccccc4)[C@@]4(OC(=O)O[C@@H]14)C2(C)C)[C@]1(OC(C)=O)CO[C@@H]1C[C@@H]3O`, for which half-maximal inhibition (IC50) required 3020 pM.

As to `CC(=O)O[C@@H]1C2=C(C)[C@@H](OC(=O)[C@H](O)[C@@H](NC(=O)c3ccc(C)cc3)c3ccccc3)C[C@@](O)([C@@H](OC(=O)c3ccccc3)[C@@H]3[C@]4(OC(C)=O)CO[C@@H]4C[C@H](O)[C@@]3(C)[C@H]1O)C2(C)C`, the 50% inhibitory concentration (IC50) is 13.8 pM.

`CC(=O)O[C@@H]1C2=C(C)[C@@H](OC(=O)[C@H](O)[C@@H](NC(=O)OC(C)(C)C)c3ccccc3)C[C@@](O)([C@@H](OC(=O)c3ccccc3)[C@@H]3[C@]4(OC(C)=O)CO[C@@H]4C[C@H](O)[C@@]3(C)[C@H]1O)C2(C)C`: the IC50 is 0.186 pM. Against the preceding compound, the IC50 is about 74-fold lower.

With `CC(=O)O[C@@H]1C2=C(C)[C@@H](OC(=O)[C@H](O)[C@@H](NC(=O)CC(C)(C)C)c3ccccc3)C[C@@](O)([C@@H](OC(=O)c3ccccc3)[C@@H]3[C@]4(OC(C)=O)CO[C@@H]4C[C@H](O)[C@@]3(C)[C@H]1O)C2(C)C`, it took 10.5 pM to reach half-maximal inhibition (IC50). Against the preceding compound, the IC50 is about 56-fold higher.

The compound `CC(=O)O[C@@H]1C2=C(C)[C@@H](OC(=O)[C@H](O)[C@@H](NC(=O)OCC(C)(C)C)c3ccccc3)C[C@@](O)([C@@H](OC(=O)c3ccccc3)[C@@H]3[C@]4(OC(C)=O)CO[C@@H]4C[C@H](O)[C@@]3(C)[C@H]1O)C2(C)C` showed an IC50 of 1.74 pM. Against the preceding compound, the IC50 is about 6-fold lower.

`CC(=O)N[C@@H](c1ccccc1)[C@@H](O)C(=O)O[C@H]1C[C@@]2(O)[C@@H](OC(=O)c3ccccc3)[C@@H]3[C@]4(OC(C)=O)CO[C@@H]4C[C@H](O)[C@@]3(C)[C@@H](O)[C@H](OC(C)=O)C(=C1C)C2(C)C` showed an IC50 of 339 pM.

In turn, `CC(=O)O[C@@H]1C2=C(C)[C@@H](OC(=O)[C@H](O)[C@@H](NC(=O)OCc3ccccc3)c3ccccc3)C[C@@](O)([C@@H](OC(=O)c3ccccc3)[C@@H]3[C@]4(OC(C)=O)CO[C@@H]4C[C@H](O)[C@@]3(C)[C@H]1O)C2(C)C` showed an IC50 of 13.5 pM. Against the preceding compound, the IC50 is about 25-fold lower.

With `CCC(C)(C)OC(=O)N[C@@H](c1ccccc1)[C@@H](O)C(=O)O[C@H]1C[C@@]2(O)[C@@H](OC(=O)c3ccccc3)[C@@H]3[C@]4(OC(C)=O)CO[C@@H]4C[C@H](O)[C@@]3(C)[C@@H](O)[C@H](OC(C)=O)C(=C1C)C2(C)C`, the IC50 is 0.776 pM.

Consider `CC(=O)O[C@@H]1C2=C(C)[C@@H](OC(=O)[C@H](O)[C@@H](NC(=O)NC(C)(C)C)c3ccccc3)C[C@@](O)([C@@H](OC(=O)c3ccccc3)[C@@H]3[C@]4(OC(C)=O)CO[C@@H]4C[C@H](O)[C@@]3(C)[C@H]1O)C2(C)C`, for which it took 6.61 pM to reach half-maximal inhibition (IC50).

`CC(=O)O[C@@H]1C2=C(C)[C@@H](OC(=O)[C@H](O)[C@@H](NC(=O)OCC(C)C)c3ccccc3)C[C@@](O)([C@@H](OC(=O)c3ccccc3)[C@@H]3[C@]4(OC(C)=O)CO[C@@H]4C[C@H](O)[C@@]3(C)[C@H]1O)C2(C)C` gave an IC50 of 2.69 pM.

The compound `CCOC(=O)N[C@@H](c1ccccc1)[C@@H](O)C(=O)O[C@H]1C[C@@]2(O)[C@@H](OC(=O)c3ccccc3)[C@@H]3[C@]4(OC(C)=O)CO[C@@H]4C[C@H](O)[C@@]3(C)[C@@H](O)[C@H](OC(C)=O)C(=C1C)C2(C)C` had an IC50 of 6.03 pM.

`CC(=O)O[C@@H]1C2=C(C)[C@@H](OC(=O)[C@H](O)[C@@H](NC(=O)OC(C)C)c3ccccc3)C[C@@](O)([C@@H](OC(=O)c3ccccc3)[C@@H]3[C@]4(OC(C)=O)CO[C@@H]4C[C@H](O)[C@@]3(C)[C@H]1O)C2(C)C`: the midpoint of inhibition, the IC50, lay at 0.955 pM.

The next assay deals with HCT-116. In words: Cytotoxicity against human HCT116 cells after 72 hrs. As to conditions: HCT-116, 72 h. The format is functional, cell-based.
Compound `CC(=O)O[C@H]1C(=O)[C@@]2(C)[C@H]([C@H](OC(=O)c3ccccc3)[C@]3(O)C[C@H](OC(=O)[C@H](O)[C@@H](NC(=O)c4ccccc4)c4ccccc4)C(C)=C1C3(C)C)[C@]1(OC(=O)c3ccccc3)CO[C@@H]1C[C@@H]2O` had an IC50 of 407000 pM.

For `CC(=O)O[C@H]1C(=O)[C@@]2(C)[C@H]([C@H](OC(=O)c3ccccc3)[C@]3(O)C[C@H](OC(=O)[C@H](O)[C@@H](NC(=O)c4ccccc4)c4ccccc4)C(C)=C1C3(C)C)[C@]1(OC(=O)c3ccc(F)cc3)CO[C@@H]1C[C@@H]2O`, half-maximal inhibition (IC50) required 794000 pM. This IC50 lies about 2-fold higher than the previous one.

A word on the IC50: it is the concentration needed to halve the response being measured. Lower therefore signals greater potency in that assay.
